Where “and” joins values, the source holds several entries; their conditions need not be identical. Equal values may be shown once.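 In this assay, cells in 96-well plates receive the compound at five concentrations for 48 hours. Endpoints are linearly interpolated between the surrounding concentrations. Here, GI50 denotes the concentration required for 50% inhibition of growth. TGI denotes the concentration required for complete inhibition of growth.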
These compounds were tested on HCT-15 colon (assay: NCI-60 cell line screen, 48 h).
With `COc1cc(/C=C\c2cc(OC)c(OC)c(OC)c2)cc(N/C=C\C(=O)c2cc(OC)c(OC)c(OC)c2)c1OC` the GI50 was 3.08 µM and the TGI was > 100 µM.
With `Clc1nc(Cl)nc(Nc2cccc3ccccc23)n1` the GI50 was 96.5 µM and the TGI was > 100 µM.
With `CCOC(=O)c1ccc(N=Nc2cc(C(=O)OCC)ccc2O)cc1` the TGI was > 100 µM.
For `[N-]=[N+]=N/C1=C/CCCCC(=O)C1`, the TGI was > 100 µM.
`CN(C)c1ncnc2c1ncn2CCn1cnc2c(N(C)C)ncnc21` was tested, and the TGI was > 100 µM.
`Cc1cc(N(CCCNc2ccnc3cc(Cl)ccc23)Cc2ccc3c(c2)OCO3)nc(N2CCOCC2)n1` showed a GI50 of 0.311 µM and a TGI of 11.7 µM.
With `CCOC(=O)C1SC(=Nc2ccccc2)N=C1C` (centres undefined) the TGI was > 100 µM.
In the case of `O=C1CCC(=O)c2c1c(O)c1ccncc1c2O`, the TGI is reported as 26.3 µM.
`C=CCN1CCC23c4c5ccc(O)c4OC2C(=NN=C2CCC4(O)C6Cc7ccc(O)c8c7C4(CCN6CC=C)C2O8)CCC3(O)C1C5` (centres undefined) was tested, and the TGI was > 100 µM.
Work on `CN1CC[C@@H](c2c(O)cc(O)c3c(=O)cc(-c4ccc(C(F)(F)F)cc4Cl)oc23)[C@@H]1CO` yielded a GI50 of 20.9 µM and a TGI of 78.2 µM.
`CN(C)CCNC(=O)c1cccc2c(Nc3ccc(S(=O)(=O)N=C(N)N)cc3)c3ccccc3nc12` was tested, and the TGI was > 100 µM.
With `COC(=O)C1=C(C(=O)OC)C2=S(SC3=C2CCCC3)S1` (centres undefined) the TGI was 46.6 µM.
`COC(=O)c1ccc(-c2c(C#N)[n+](=O)c3cc(Cl)c(Cl)cc3n2[O-])cc1` was tested, and the GI50 was 11.1 µM and the TGI was 91.2 µM.
In the case of `Cn1cc(-c2csc(-c3c[nH]c4ccc(Br)cc34)n2)c2cnccc21`, the GI50 is reported as 1.38 µM and the TGI is reported as 2.85 µM.
`COc1ccc(Cn2c(N)c(S(=O)(=O)c3ccc(Cl)cc3)c3nc(C#N)c(C#N)nc32)cc1` was tested, and the GI50 was > 50 µM and the TGI was > 50 µM.

The compounds below were run on SK-OV-3 ovarian (assay: NCI-60 cell line screen, 48 h).
With `Cn1c(Nc2ccc(C(F)(F)F)cc2)nc2cc(Oc3ccnc(-c4ncc(C(F)(F)F)[nH]4)c3)ccc21` the GI50 was 0.0385 µM and the TGI was 19.1 µM.
`COc1ccc(-c2nsc3c2NC(=O)CC3c2cccc(OC)c2)cc1` (centres undefined) was tested, and the GI50 was 1.45 µM and the TGI was 7.43 µM.
In the case of `C[C@@]12CCC[C@@](C)(C(=O)O)C1CC[C@]13CC(=O)[C@](CO)(C1)[C@@H](O)CC32` (some centres undefined), the GI50 is reported as > 100 µM and the TGI is reported as > 100 µM.
With `O=[N+]([O-])c1ccc(CI)cc1` the GI50 was 4.53 µM and the TGI was 15.5 µM.
For `CN(C)C/C=C/C(=O)Nc1cc2c(Nc3ccc(F)c(Cl)c3)ncnc2cc1O[C@H]1CCOC1`, the GI50 was < 0.01 µM and 0.00185 µM and the TGI was 0.322 µM and 0.327 µM.
For `Cn1cnnc1Sc1c([N+](=O)[O-])ncn1C`, the TGI was > 100 µM.
With `C=CCC1(CN(C)C)CC/C(=C\c2ccc(Cl)cc2)C1=O` (centres undefined) the TGI was > 100 µM.
`COc1cc(/C=C/C(=O)c2cccc(-n3cc(-c4ccc(Cl)cc4)[nH]c3=O)c2)ccc1O` was tested, and the GI50 was 4.78 µM and the TGI was > 30.2 µM.
For `CC(=O)N1CCC(=O)/C(=C/c2ccccc2)C1`, the TGI was > 100 µM.
For `C[Si](C)(C)/C(Br)=C\CCN1C(=O)CCC1=O`, the TGI was > 100 µM.
In the case of `CC1(Br)Cc2ccccc2C1=O` (centres undefined), the TGI is reported as 65.9 µM.
In the case of `C[C@]12CCC(=O)C=C1CC[C@@H]1C2CC[C@]2(C)Nc3[nH]ncc3CC12` (some centres undefined), the TGI is reported as > 100 µM.
For `CCOC(=O)/C=C/c1ccc(C#Cc2ccccc2)cc1`, the GI50 was > 100 µM and the TGI was > 100 µM.
`O=[P@@]1(c2ccccc2)O[C@H](COCc2ccccc2)[C@@H](OCc2ccccc2)[C@H](OCc2ccccc2)[C@H]1NCc1ccccc1` was tested, and the GI50 was 4.48 µM and the TGI was > 100 µM.
`O=C1c2cc3c(cc2-c2c1c1cc(Cl)c(Cl)cc1c(=O)n2C[C@H](O)CO)OCO3` was tested, and the GI50 was < 0.01 µM and the TGI was 0.0536 µM.
`COc1ccc(/C(=C\C=C(C#N)C#N)Sc2nc3ccccc3s2)cc1` gave a GI50 of 14.3 µM and a TGI of 29.5 µM.
`CC(C)(C)[Si](C)(C)OC1C(=O)C[C@H]2CCCC[C@@H]12` (some centres undefined) was tested, and the TGI was > 100 µM.
In the case of `CCN(CC)CCSc1c2ccccc2nc2c(OC)ccc(OC)c12`, the TGI is reported as 69.2 µM.
With `COc1cc(/C=C\c2cc(OC)c(OC)c(OC)c2)cc(N/C=C\C(=O)c2cc(OC)c(OC)c(OC)c2)c1OC` the GI50 was 2.91 µM and the TGI was > 100 µM.
In the case of `Clc1nc(Cl)nc(Nc2cccc3ccccc23)n1`, the GI50 is reported as > 100 µM and the TGI is reported as > 100 µM.
For `CCOC(=O)c1ccc(N=Nc2cc(C(=O)OCC)ccc2O)cc1`, the TGI was > 100 µM.
For `[N-]=[N+]=N/C1=C/CCCCC(=O)C1`, the TGI was > 100 µM.
With `CN(C)c1ncnc2c1ncn2CCn1cnc2c(N(C)C)ncnc21` the TGI was > 100 µM.
`O=C1CCC(=O)c2c1c(O)c1ccncc1c2O` was tested, and the TGI was 98.8 µM.
For `C=CCN1CCC23c4c5ccc(O)c4OC2C(=NN=C2CCC4(O)C6Cc7ccc(O)c8c7C4(CCN6CC=C)C2O8)CCC3(O)C1C5` (centres undefined), the TGI was > 100 µM.
With `CN1CC[C@@H](c2c(O)cc(O)c3c(=O)cc(-c4ccc(C(F)(F)F)cc4Cl)oc23)[C@@H]1CO` the GI50 was 26.6 µM and the TGI was 70 µM.
In the case of `COC(=O)C1=C(C(=O)OC)C2=S(SC3=C2CCCC3)S1` (centres undefined), the TGI is reported as > 100 µM.
Work on `O=C(Nc1ccc(Cl)c(C(F)(F)F)c1)c1ccc(NC2=C(Cl)C(=O)N(Cc3ccccc3)C2=O)cc1` yielded a GI50 of 26.9 µM and a TGI of 60.5 µM.
Compound `COc1ccc(Cn2c(N)c(S(=O)(=O)c3ccc(Cl)cc3)c3nc(C#N)c(C#N)nc32)cc1` has a GI50 of 10.8 µM and a TGI of 49.4 µM.

These compounds were tested on HCT-116 colon (assay: NCI-60 cell line screen, 48 h).
`Cn1c(Nc2ccc(C(F)(F)F)cc2)nc2cc(Oc3ccnc(-c4ncc(C(F)(F)F)[nH]4)c3)ccc21` gave a GI50 of 0.0787 µM and a TGI of 7.06 µM.
`COc1ccc(-c2nsc3c2NC(=O)CC3c2cccc(OC)c2)cc1` (centres undefined) was tested, and the GI50 was 0.531 µM and the TGI was > 100 µM.
With `C[C@@]12CCC[C@@](C)(C(=O)O)C1CC[C@]13CC(=O)[C@](CO)(C1)[C@@H](O)CC32` (some centres undefined) the GI50 was > 100 µM and the TGI was > 100 µM.
`O=[N+]([O-])c1ccc(CI)cc1` showed a GI50 of 0.9 µM and a TGI of 2.95 µM.
With `CN(C)C/C=C/C(=O)Nc1cc2c(Nc3ccc(F)c(Cl)c3)ncnc2cc1O[C@H]1CCOC1` the GI50 was 0.448 µM and 0.679 µM and the TGI was 1.93 µM and > 5.87 µM.
In the case of `Cn1cnnc1Sc1c([N+](=O)[O-])ncn1C`, the TGI is reported as > 100 µM.
`C=CCC1(CN(C)C)CC/C(=C\c2ccc(Cl)cc2)C1=O` (centres undefined) was tested, and the TGI was > 94.5 µM.
In the case of `COc1cc(/C=C/C(=O)c2cccc(-n3cc(-c4ccc(Cl)cc4)[nH]c3=O)c2)ccc1O`, the GI50 is reported as 1.57 µM and the TGI is reported as 3.82 µM.
`CC(=O)N1CCC(=O)/C(=C/c2ccccc2)C1` gave a TGI of 32.2 µM.
In the case of `C[Si](C)(C)/C(Br)=C\CCN1C(=O)CCC1=O`, the TGI is reported as > 100 µM.
`CC1(Br)Cc2ccccc2C1=O` (centres undefined) was tested, and the GI50 was 2.01 µM and the TGI was 5.02 µM.
`C[C@]12CCC(=O)C=C1CC[C@@H]1C2CC[C@]2(C)Nc3[nH]ncc3CC12` (some centres undefined) was tested, and the TGI was > 100 µM.
`CCOC(=O)/C=C/c1ccc(C#Cc2ccccc2)cc1` was tested, and the GI50 was > 100 µM and the TGI was > 100 µM.
`O=[P@@]1(c2ccccc2)O[C@H](COCc2ccccc2)[C@@H](OCc2ccccc2)[C@H](OCc2ccccc2)[C@H]1NCc1ccccc1` was tested, and the GI50 was 2.74 µM and the TGI was > 100 µM.
With `CC(C)(C)[Si](C)(C)OC1C(=O)C[C@H]2CCCC[C@@H]12` (some centres undefined) the TGI was > 100 µM.
Work on `CCN(CC)CCSc1c2ccccc2nc2c(OC)ccc(OC)c12` yielded a TGI of 17.7 µM.
For `COc1cc(/C=C\c2cc(OC)c(OC)c(OC)c2)cc(N/C=C\C(=O)c2cc(OC)c(OC)c(OC)c2)c1OC`, the GI50 was 2.78 µM and the TGI was > 100 µM.
For `Clc1nc(Cl)nc(Nc2cccc3ccccc23)n1`, the GI50 was 47.1 µM and the TGI was > 100 µM.
`CCOC(=O)c1ccc(N=Nc2cc(C(=O)OCC)ccc2O)cc1` was tested, and the TGI was > 100 µM.
`CN(C)c1ncnc2c1ncn2CCn1cnc2c(N(C)C)ncnc21` was tested, and the TGI was > 100 µM.
For `Cc1cc(N(CCCNc2ccnc3cc(Cl)ccc23)Cc2ccc3c(c2)OCO3)nc(N2CCOCC2)n1`, the GI50 was 0.245 µM and the TGI was 0.882 µM.
With `CCOC(=O)C1SC(=Nc2ccccc2)N=C1C` (centres undefined) the TGI was > 100 µM.
`O=C1CCC(=O)c2c1c(O)c1ccncc1c2O` showed a TGI of 27.9 µM.
For `CN1CC[C@@H](c2c(O)cc(O)c3c(=O)cc(-c4ccc(C(F)(F)F)cc4Cl)oc23)[C@@H]1CO`, the GI50 was 11.4 µM and the TGI was 24.2 µM.
In the case of `CN(C)CCNC(=O)c1cccc2c(Nc3ccc(S(=O)(=O)N=C(N)N)cc3)c3ccccc3nc12`, the TGI is reported as > 100 µM.
Compound `O=C(Nc1ccc(Cl)c(C(F)(F)F)c1)c1ccc(NC2=C(Cl)C(=O)N(Cc3ccccc3)C2=O)cc1` has a GI50 of 13.9 µM and a TGI of 27.2 µM.
`COC(=O)c1ccc(-c2c(C#N)[n+](=O)c3cc(Cl)c(Cl)cc3n2[O-])cc1` was tested, and the GI50 was 13.3 µM and the TGI was > 100 µM.
`Cn1cc(-c2csc(-c3c[nH]c4ccc(Br)cc34)n2)c2cnccc21` showed a GI50 of 1.56 µM and a TGI of 3.11 µM.
With `COc1ccc(Cn2c(N)c(S(=O)(=O)c3ccc(Cl)cc3)c3nc(C#N)c(C#N)nc32)cc1` the GI50 was > 50 µM and the TGI was > 50 µM.

The compounds below were run on SK-MEL-5 melanoma (assay: NCI-60 cell line screen, 48 h).
In the case of `Cn1c(Nc2ccc(C(F)(F)F)cc2)nc2cc(Oc3ccnc(-c4ncc(C(F)(F)F)[nH]4)c3)ccc21`, the GI50 is reported as 0.34 µM and the TGI is reported as 4.96 µM.
